Test system: primary human chondrocytes
Assay: WST-1 cell proliferation assay in primary human chondrocytes with IL-1β
Assay type: cell-based
Conditions: IL-1β 5 ng/mL, concentrations up to 5 mM, n=6
Text: Normal cartilage tissues. Articular cartilages were harvested from the femoral condyles and the tibial plateaus, which were obtained from autopsy services at the hospital of UVA and approved by the Institutional Review Board. All tissue samples were graded according to a modified Mankin scale, and only cartilages without evidence of osteoarthritis were used as a source of chondrocytes. The interval between death and the time the cartilages were harvested from these knee joints in the laboratory were at least 24 h and ranged up to 96 h. Cartilage shavings were harvested at the operation room and placed in tissue culture medium (DMEM, 10% FBS, penicillin, streptomycin), and shipped to the laboratory at 4° C. The tissues were processed in the laboratory within 24 h after harvest.
Chondrocytes were isolated from the cartilage by collagenase digestion and maintained in continuous monolayer cultures in DMEM containing 10% FBS. Cell viability after chondrocyte isolation by collagenase digestion of normal cartilage was >95%, determined by the typan blue stain (Sigma-Aldrich). Experiments were performed with primary or first passage cells. When necessary, trypsin will be used for cell passage.
Human chondrocytes were seeded in a 96-well plate (5×10^4/well) and incubated with culture medium overnight. […]

## CC(=O)N[C@H]1C(O)O[C@H](CO)[C@@H](O)[C@@H]1O (stereo partly shown) [NAG, N-acetyl glucosamine]
  effect on cell growth / toxicity (WST-1): could prevent inhibition of cell proliferation induced by IL-1β
